Concentration data for one molecule are collected here from patent US11059823B2, “Small molecule inhibitors of the JAK family of kinases” (Janssen Pharmaceutica NV, priority 2016, dated 2021).

A short description of the data set: Plasma and colon concentrations after p.o. dosing (Protocols 1 and 2). The format is in vivo, female C57BL/6 mice. The settings on record: female, C57BL/6, mouse, po, mice, 25 mg/kg p.o. As to the method: These protocols are described below under the heading In vivo Studies.
(§1) Three non-fasted female C57BL/6 mice were orally administered test compound at a dose of 25 mg/kg p.o. as a solution in 20% hydroxypropyl-beta-cyclodextrin (HPβCD) at a dose volume of 5 mL/kg. Blood samples were collected at 0.5, 2, and 4 h post dose via retro-orbital bleed or venipuncture of the dorsal metatarsal vein. Blood samples were collected into tubes containing anticoagulant (Heparin-Na) and placed on wet ice. The plasma fraction was separated by centrifugation and frozen at −20° C. for up to 4 h and −80° C. after 4 h unless analyzed shortly after sample collection. Colon samples were collected at 4 h post dose. From the beginning of the cecum, a 4-6 cm sample of the colon was dissected, cut open on the longitudinal axis, and the solid contents removed by flushing with 2 mL of saline. The colon was further washed by putting it in 5 mL of saline and shaken for 5 seconds. The colon sample was then patted dry, weighed, and homogenized as 1 part tissue (g) to 4 parts HPLC grade water (mL). Concentrations of the compound in plasma and colon homogenate were determined using a qualified liquid chromatography-triple quadrupole mass spectrometry (LC-MS/MS) method.
as §1, with “HPβCD” for “hydroxypropyl-beta-cyclodextrin (HPβCD)”, “or” for “or venipuncture of the”, “2 cm below” for “the beginning of”, “4” for “4-6”

The structures appear in SMILES notation. Where two headings read alike, the source gives them in different places.

For `N#CC[C@H]1CC[C@H](n2c(-c3c[nH]cn3)nc3cnc4[nH]ccc4c32)CC1` [Ex. 2, 2-((1r,4r)-4-(2-(1H-Imidazol-4-yl)imidazo[4,5-d]pyrrolo[2,3-b]pyridin-1(6H)-yl)cyclohexyl)acetonitrile], the concentration at 4 h (colon, read-out: Colon Concentration After p.o. Dosing, Mean) was determined as 7600 ng/g and the concentration at 4 h (plasma, read-out: Plasma Concentration After p.o. Dosing, Mean) was found to be 1.3 ng/mL. The concentration at 0.5 h (plasma, Time = 0.5 h) was determined as 24.5 ng/mL. This molecule also gave a concentration at 2 h (plasma, Time = 2 h) of 4.2 ng/mL.
